Source: US6103700A, “Fluoro labelled anthracyclinone and anthracycline derivatives” (Pharmacia & Upjohn S.p.A., priority 1996, dated 2000)

What was measured:
Aβ25-35 peptide = Aβ25-35 peptide (Homo sapiens, UniProt P05067); experiment: Antifibrillogenic activity, thioflavine T (ThT) assay with Aβ25-35 peptide; format: biochemical; details: compound 30 μM, Aβ25-35 peptide 100 μM, 50 μM phosphate buffer pH 5, 25° C., 24 hours; ThT 47 μM; ex 420 nm, em 490 nm; less fluorescence = less amyloid; read-out: ThT fluorescence (% of control)
Protocol: The compounds of the present invention are also endowed with antifibrillogenic activity. When Aβ peptides are incubated with the compounds, a reduction in the formation of amyloid fibrils is observed. The amount of amyloid that results from peptide aggregation can be evaluated using the thioflavine T (ThT) assay as reported in the literature by Naiki et al., Analytical Biochemistry 1989, vol. 177, p. 244 and by H. LeVine III, Protein Science 1993, vol.2, p. 404. Compounds are incubated at a concentration of 30 μM, in 50 μM phosphate buffer pH 5 at 25° C. during 24 hours, with 100 μM peptide. The incubated samples are then diluted with sodium citrate buffer pH 5 containing 47 μM ThT. Fluorescence was measured with excitation at 420 nm and emission at 490 nm in a Kontron fluorescence spectrophotometer and the values were averaged after subtracting the background fluorescence of ThT. The less the fluorescence the less the amount of amyloid formed during the incubation period.
The following data obtained with the Aβ25-35 peptide are reported as examples.

Aβ25-35 fibrils = Aβ25-35 fibrils (Homo sapiens, UniProt P05067); experiment: Binding of anthracyclinones and anthracyclines to Aβ25-35 fibrils (fluorescent detection of bound compound); details: 10% dimethylsulfoxide in distilled water, 60 minutes, room temperature, rectangular hyperbola (binding isotherm), read-out: EC50 (affinity of the test compounds for the Aβ fibrils)
Protocol: Binding of anthracyclinones and anthracyclines to Aβ fibrils
Fibrils from Aβ25-35 peptide are suspended in a solution of 10% dimethylsulfoxide in distilled water containing the test compound at various concentrations and incubated at room temperature for 60 minutes. After incubation, the samples are centrifuged at 15000 g for 10 minutes at room temperature and the supernatant withdrawn. Fibril pellets are washed three times with 0.3 ml of 10% DMSO in distilled water, dissolved in ethanol and the bound compound is quantified by fluorescent detection. EC50 are then calculated using rectangular hyperbola (binding isotherm) equation and represents the affinity of the test compounds for the Aβ fibrils.

Aβ1-40 fibrils = experiment: Binding to Aβ1-40 fibrils (filtration, HPLC quantification of bound compound); details: 3% dimethylsulfoxide in water, 15 minutes, room temperature, Hill equation
Protocol: The precipitated fibrils are centrifuged, washed with distilled water, centrifuged again and resuspended in distilled water at a concentration of […]. The fibril suspension is sonocated for one minute and freezed at -20° C. in aliquots until use. […] The resulting suspension is incubated at room temperature for 15 minutes. After incubation, the suspension is loaded onto a Millipore ultrafree MC filter (0.22 μm pore retention) and centrifuged for 5 minutes at 4° C. […] The amount of bound compound is quantified by HPLC. The aspecific binding of the compounds to the filter is evaluated by processing samples of the compounds, as previously described, in the absence of fibrils. The amount of compound bound to the filter is subtracted from the total binding value obtained in the presence of fibrils. Binding parameters were estimated by computerised non-linear regression analysis according to the Hill equation. Data are expressed as nanomoles of compound bound per mg of peptide monomer (Bmax)

Structure (SMILES): COc1cccc2c1C(=O)c1c(O)c3c(c(O)c1C2=O)C[C@@](O)(C(=O)CO)C[C@@H]3O[C@H]1C[C@H](NC(=O)C(F)(F)F)[C@H](I)[C@H](C)O1 [Compound A1, N-trifluoroacetyl-4'-iododoxorubicin]
- remaining activity at 30 µM (Aβ25-35 peptide): 20.6%

Structure (SMILES): COc1cccc2c1C(=O)c1c(O)c3c(c(O)c1C2=O)C[C@@](O)(C(=O)CN1CCN(C(=O)C(F)(F)F)CC1)C[C@@H]3O [Compound A2, 14-(4-trifluoroacetylpiperazin-1-yl)-daunomycinone]
- remaining activity at 30 µM (Aβ25-35 peptide): 22.2%

Structure (SMILES): COc1cccc2c1C(=O)c1c(O)c3c(c(O)c1C2=O)C[C@@](O)(C(=O)CN1CCN(S(=O)(=O)C(F)(F)F)CC1)C[C@@H]3O [Compound A3, 14-(4-trifluoromethanesulphonylpiperazin-1-yl)-daunomycinone]
- remaining activity at 30 µM (Aβ25-35 peptide): 23%
- EC50 (Aβ25-35 fibrils): 8.16 ± 1.32 µM

Structure (SMILES): COc1cccc2c1C(=O)c1c(O)c3c(c(O)c1C2=O)C[C@@](O)(C(=O)CN1CCN(c2cccc(C(F)(F)F)c2)CC1)C[C@@H]3O [Compound A4, 14-[4-(3-trifluoromethylphenyl)piperazin-1-yl]-daunomycinone]
- remaining activity at 30 µM (Aβ25-35 peptide): 22.3%

Structure (SMILES): CCN(CC(=O)[C@]1(O)Cc2c(O)c3c(c(O)c2[C@@H](O)C1)C(=O)c1c(OC)cccc1C3=O)Cc1cc(C(F)(F)F)cc(C(F)(F)F)c1 [Compound A5, 14-[N-ethyl-N-(3,5-bis-trifluoromethylphenyl)methyl]daunomycinone]
- remaining activity at 30 µM (Aβ25-35 peptide): 23.1%
- Bmax (nanomoles of compound bound per mg of peptide monomer) (Aβ1-40 fibrils): 223.1 nmoles/mg Aβ1-40

Structure (SMILES): COc1cccc2c1C(=O)c1c(O)c3c(c(O)c1C2=O)C[C@@](O)(C(=O)CN(Cc1ccccc1)CC(F)(F)F)C[C@@H]3O [Compound A6, 14-[N-benzyl-N-(2,2,2-trifluoroethyl)]amino-daunomycinone]
- remaining activity at 30 µM (Aβ25-35 peptide): 35%

Structure (SMILES): COc1cccc2c1C(=O)c1c(O)c3c(c(O)c1C2=O)C[C@@](O)(C(=O)CN1CC=CCC1)C[C@@H]3O[C@H]1C[C@H](NC(=O)C(F)(F)F)[C@H](I)[C@H](C)O1 [Compound A7, 14-(1,2,3,6-tetrahydropyridin-1-yl)-4'-deoxy-4'-iodo-3'-N-trifluoroacetyl daunorubicin]
- remaining activity at 30 µM (Aβ25-35 peptide): 33.2%

Structure (SMILES): COc1cccc2c1C(=O)c1c(O)c3c(c(O)c1C2=O)C[C@@](O)(C(=O)CO)C[C@@H]3O[C@H]1C[C@H](N)[C@H](I)[C@H](C)O1 [IDOX, iododoxorubicin, reference compound]
- remaining activity at 30 µM (Aβ25-35 peptide): 41%
- Bmax (nanomoles of compound bound per mg of peptide monomer) (Aβ1-40 fibrils): 122.2 nmoles/mg Aβ1-40
- EC50 (Aβ25-35 fibrils): 52 ± 10.7 µM
